Starred links: 1 amine or outer side, 2 acyl side, 3 side chain; linkers in the order of their positions; H or OH if unused. Positions of bridges follow the written chain, without caps; N, C: chain ends. Non-standard residues stand in square brackets, D forms with d. Residues, ends and D or L forms follow the SMILES beside them. ξ: configuration not given here. *: point of attachment. Benzoyl(4-OC10H21) = CCCCCCCCCCOc1ccc(C(=O)*)cc1; ξAbu(βξ-NH2) = CC(N[*:3])C(N[*:1])C(=O)[*:2]; Phac(3-amino) = O=C(Cc1cccc(N[*:1])c1)[*:2]; Pentadecanoyl = CCCCCCCCCCCCCCC(=O)*; X8 = O=C(/C=C/c1ccc(N[*:1])cc1)[*:2]; Bta = N[C@@H](Cc1csc2ccccc12)C(=O)O; Stearoyl = CCCCCCCCCCCCCCCCCC(=O)*; ξAsp(βξ-Me) = CC(C(=O)O)C(N)C(=O)O; Palmitoyl = CCCCCCCCCCCCCCCC(=O)*; X2 = O=C(CCc1ccc(N[*:1])cc1)[*:2]; X1 = O=C(Cc1ccc(N[*:1])cc1)[*:2]; Myristoyl = CCCCCCCCCCCCCC(=O)*; X13 = O=C(CCCCCCCCCCOc1ccccc1)*; ξAbu(3ξ-NH2) = CC(N)C(N)C(=O)O; Lauroyl = CCCCCCCCCCCC(=O)*; Decanoyl = CCCCCCCCCC(=O)*; 4Abz = Nc1ccc(C(=O)O)cc1; Octanoyl = CCCCCCCC(=O)*; Pip = O=C(O)[CH]1CCCCN1; ξD = NC(CC(=O)O)C(=O)O; ξPip = O=C(O)C1CCCCN1; ξV = CC(C)C(N)C(=O)O; ξP = O=C(O)C1CCCN1; OtBu = CC(C)(C)O*
Test system: Staphylococcus aureus (MSSA)
Settings: 24 h
How it was run: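 Broth microdilution MIC per NCCLS M7-A6 with doubling serial dilutions, in cation-adjusted Mueller-Hinton broth supplemented with 0.625 mM calcium.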

Row | SMILES | MIC
1 | CCCCCCCCCCCC(=O)NCC(=O)NC(CC(=O)O)C(=O)NC1C(=O)N2CCCCC2C(=O)NC(C(C)C(=O)O)C(=O)NC(CC(=O)O)C(=O)NCC(=O)NC(CC(=O)O)C(=O)NCC(=O)NC(C(C)N)C(=O)NC(C(C)C)C(=O)N2CCCC2C(=O)NC1C (stereo not drawn) [Compound 103, C12-Gly-Amphomycin] (Lauroyl-GD[ξAbu(βξ-NH2)][Pip][ξAsp(βξ-Me)]DGDG[ξAbu(3ξ-NH2)]VP; lactam 3-C; configuration not given here) | 8 to 16 µg/mL
2 | CCCCCCCC(=O)Nc1ccc(CC(=O)NC(CC(=O)O)C(=O)NC2C(=O)N3CCCCC3C(=O)NC(C(C)C(=O)O)C(=O)NC(CC(=O)O)C(=O)NCC(=O)NC(CC(=O)O)C(=O)NCC(=O)NC(C(C)N)C(=O)NC(C(C)C)C(=O)N3CCCC3C(=O)NC2C)cc1 (stereo not drawn) [Compound 104, C8-(p-Apa)-Amphomycin] (Octanoyl-[X1]D[ξAbu(βξ-NH2)][Pip][ξAsp(βξ-Me)]DGDG[ξAbu(3ξ-NH2)]VP; lactam 3-C; configuration not given here) | 2 µg/mL
3 | CCCCCCCCCCCCCC(=O)NCC(=O)NC(CC(=O)O)C(=O)NC1C(=O)N2CCCCC2C(=O)NC(C(C)C(=O)O)C(=O)NC(CC(=O)O)C(=O)NCC(=O)NC(CC(=O)O)C(=O)NCC(=O)NC(C(C)N)C(=O)NC(C(C)C)C(=O)N2CCCC2C(=O)NC1C (stereo not drawn) [Compound 105, C14-Gly-Amphomycin] (Myristoyl-GD[ξAbu(βξ-NH2)][Pip][ξAsp(βξ-Me)]DGDG[ξAbu(3ξ-NH2)]VP; lactam 3-C; configuration not given here) | 0.5 µg/mL
4 | CCCCCCCCCCCCCCCC(=O)NCC(=O)NC(CC(=O)O)C(=O)NC1C(=O)N2CCCCC2C(=O)NC(C(C)C(=O)O)C(=O)NC(CC(=O)O)C(=O)NCC(=O)NC(CC(=O)O)C(=O)NCC(=O)NC(C(C)N)C(=O)NC(C(C)C)C(=O)N2CCCC2C(=O)NC1C (stereo not drawn) [Compound 106, C16-Gly-Amphomycin] (Palmitoyl-GD[ξAbu(βξ-NH2)][Pip][ξAsp(βξ-Me)]DGDG[ξAbu(3ξ-NH2)]VP; lactam 3-C; configuration not given here) | 0.5 µg/mL
5 | CCCCCCCCCCCCCCCCCC(=O)NCC(=O)NC(CC(=O)O)C(=O)NC1C(=O)N2CCCCC2C(=O)NC(C(C)C(=O)O)C(=O)NC(CC(=O)O)C(=O)NCC(=O)NC(CC(=O)O)C(=O)NCC(=O)NC(C(C)N)C(=O)NC(C(C)C)C(=O)N2CCCC2C(=O)NC1C (stereo not drawn) [Compound 107, C18-Gly-Amphomycin] (Stearoyl-GD[ξAbu(βξ-NH2)][Pip][ξAsp(βξ-Me)]DGDG[ξAbu(3ξ-NH2)]VP; lactam 3-C; configuration not given here) | 2 µg/mL
6 | CCCCCCCCCCOc1ccc(C(=O)NCC(=O)NC(CC(=O)O)C(=O)NC2C(=O)N3CCCCC3C(=O)NC(C(C)C(=O)O)C(=O)NC(CC(=O)O)C(=O)NCC(=O)NC(CC(=O)O)C(=O)NCC(=O)NC(C(C)N)C(=O)NC(C(C)C)C(=O)N3CCCC3C(=O)NC2C)cc1 (stereo not drawn) [Compound 110, CH3—(CH2)9—O-p-Ph-C(═O)-Gly-Amphomycin] ({Benzoyl(4-OC10H21)}-GD[ξAbu(βξ-NH2)][Pip][ξAsp(βξ-Me)]DGDG[ξAbu(3ξ-NH2)]VP; lactam 3-C; configuration not given here) | 0.5 µg/mL
7 | CCCCCCCCCCCC(=O)Nc1ccc(C(=O)NCC(=O)NC(CC(=O)O)C(=O)NC2C(=O)N3CCCCC3C(=O)NC(C(C)C(=O)O)C(=O)NC(CC(=O)O)C(=O)NCC(=O)NC(CC(=O)O)C(=O)NCC(=O)NC(C(C)N)C(=O)NC(C(C)C)C(=O)N3CCCC3C(=O)NC2C)cc1 (stereo not drawn) [Compound 123, C12-PABA-Gly-Amphomycin] ({Lauroyl-4Abz}-GD[ξAbu(βξ-NH2)][Pip][ξAsp(βξ-Me)]DGDG[ξAbu(3ξ-NH2)]VP; lactam 3-C; configuration not given here) | 1 µg/mL

Second part, the compound after the results:

Row | MIC | SMILES
8 | 0.5 to 1 µg/mL | CCCCCCCCCCCC(=O)Nc1cccc(CC(=O)NC(CC(=O)O)C(=O)NC2C(=O)N3CCCCC3C(=O)NC(C(C)C(=O)O)C(=O)NC(CC(=O)O)C(=O)NCC(=O)NC(CC(=O)O)C(=O)NCC(=O)NC(C(C)N)C(=O)NC(C(C)C)C(=O)N3CCCC3C(=O)NC2C)c1 (stereo not drawn) [Compound 111, C12-(M-Apa)-Amphomycin] (Lauroyl-[Phac(3-amino)]D[ξAbu(βξ-NH2)][Pip][ξAsp(βξ-Me)]DGDG[ξAbu(3ξ-NH2)]VP; lactam 3-C; configuration not given here)
9 | 0.5 µg/mL | CCCCCCCCCCCCCCC(=O)N[C@@H](CC(=O)OC(C)(C)C)C(=O)NC(CC(=O)O)C(=O)NC1C(=O)N2CCCCC2C(=O)NC(C(C)C(=O)O)C(=O)NC(CC(=O)O)C(=O)NCC(=O)NC(CC(=O)O)C(=O)NCC(=O)NC(C(C)N)C(=O)NC(C(C)C)C(=O)N2CCCC2C(=O)NC1C (stereo partly drawn) [Compound 112, C15-[Asp-(OtBu)]-Amphomycin] (Pentadecanoyl-D(OtBu)[ξD][ξAbu(βξ-NH2)][ξPip][ξAsp(βξ-Me)][ξD]G[ξD]G[ξAbu(3ξ-NH2)][ξV][ξP]; lactam 3-C)
10 | 16 µg/mL | CCCCCCCCCC(=O)Nc1cccc(CC(=O)NC(CC(=O)O)C(=O)NC2C(=O)N3CCCCC3C(=O)NC(C(C)C(=O)O)C(=O)NC(CC(=O)O)C(=O)NCC(=O)NC(CC(=O)O)C(=O)NCC(=O)NC(C(C)N)C(=O)NC(C(C)C)C(=O)N3CCCC3C(=O)NC2C)c1 (stereo not drawn) [Compound 113, C10-(M-Apa)-Amphomycin] (Decanoyl-[Phac(3-amino)]D[ξAbu(βξ-NH2)][Pip][ξAsp(βξ-Me)]DGDG[ξAbu(3ξ-NH2)]VP; lactam 3-C; configuration not given here)
11 | 2 µg/mL | CCCCCCCCCCCCCCC(=O)N[C@H](C(=O)NC(CC(=O)O)C(=O)NC1C(=O)N2CCCCC2C(=O)NC(C(C)C(=O)O)C(=O)NC(CC(=O)O)C(=O)NCC(=O)NC(CC(=O)O)C(=O)NCC(=O)NC(C(C)N)C(=O)NC(C(C)C)C(=O)N2CCCC2C(=O)NC1C)c1ccccc1 (some centres unmarked) [Compound 115, C15-Phg-Amphomycin]
12 | 1 µg/mL | CCCCCCCCCCCCCCC(=O)N[C@H](Cc1ccccc1)C(=O)NC(CC(=O)O)C(=O)NC1C(=O)N2CCCCC2C(=O)NC(C(C)C(=O)O)C(=O)NC(CC(=O)O)C(=O)NCC(=O)NC(CC(=O)O)C(=O)NCC(=O)NC(C(C)N)C(=O)NC(C(C)C)C(=O)N2CCCC2C(=O)NC1C (stereo partly drawn) [Compound 116, C15-(D-Phe)-Amphomycin] (Pentadecanoyl-[dF][ξD][ξAbu(βξ-NH2)][ξPip][ξAsp(βξ-Me)][ξD]G[ξD]G[ξAbu(3ξ-NH2)][ξV][ξP]; lactam 3-C)
13 | 8 µg/mL | CC(C)C1NC(=O)C(C(C)N)NC(=O)CNC(=O)C(CC(=O)O)NC(=O)CNC(=O)C(CC(=O)O)NC(=O)C(C(C)C(=O)O)NC(=O)C2CCCCN2C(=O)C(NC(=O)C(CC(=O)O)NC(=O)CNC(=O)CCCCCCCCCCOc2ccccc2)C(C)NC(=O)C2CCCN2C1=O (stereo not drawn) [Compound 117, Ph-O—(CH2)11-Gly-Amphomycin] (X13-GD[ξAbu(βξ-NH2)][Pip][ξAsp(βξ-Me)]DGDG[ξAbu(3ξ-NH2)]VP; lactam 3-C; configuration not given here; N-terminus assumed)
14 | 2 µg/mL | CCCCCCCCCC(=O)N[C@@H](Cc1csc2ccccc12)C(=O)NC(CC(=O)O)C(=O)NC1C(=O)N2CCCCC2C(=O)NC(C(C)C(=O)O)C(=O)NC(CC(=O)O)C(=O)NCC(=O)NC(CC(=O)O)C(=O)NCC(=O)NC(C(C)N)C(=O)NC(C(C)C)C(=O)N2CCCC2C(=O)NC1C (stereo partly drawn) [Compound 118, C10-(L-BBTA)-Amphomycin] (Decanoyl-[Bta][ξD][ξAbu(βξ-NH2)][ξPip][ξAsp(βξ-Me)][ξD]G[ξD]G[ξAbu(3ξ-NH2)][ξV][ξP]; lactam 3-C)
15 | 0.5 µg/mL | CCCCCCCCCCCC(=O)Nc1ccc(/C=C/C(=O)NC(CC(=O)O)C(=O)NC2C(=O)N3CCCCC3C(=O)NC(C(C)C(=O)O)C(=O)NC(CC(=O)O)C(=O)NCC(=O)NC(CC(=O)O)C(=O)NCC(=O)NC(C(C)N)C(=O)NC(C(C)C)C(=O)N3CCCC3C(=O)NC2C)cc1 (stereo not drawn) [Compound 120, C12-(p-Amino-Trans-Cinnamyl)-Amphomycin] (Lauroyl-[X8]D[ξAbu(βξ-NH2)][Pip][ξAsp(βξ-Me)]DGDG[ξAbu(3ξ-NH2)]VP; lactam 3-C; configuration not given here)
16 | 8 µg/mL | CCCCCCCCCC(=O)Nc1ccc(CC(=O)NC(CC(=O)O)C(=O)NC2C(=O)N3CCCCC3C(=O)NC(C(C)C(=O)O)C(=O)NC(CC(=O)O)C(=O)NCC(=O)NC(CC(=O)O)C(=O)NCC(=O)NC(C(C)N)C(=O)NC(C(C)C)C(=O)N3CCCC3C(=O)NC2C)cc1 (stereo not drawn) [Compound 122, CH3—(CH2)9-(p-Apa)-Amphomycin] (Decanoyl-[X1]D[ξAbu(βξ-NH2)][Pip][ξAsp(βξ-Me)]DGDG[ξAbu(3ξ-NH2)]VP; lactam 3-C; configuration not given here; N-terminus assumed)

Same assay, conditions: S. aureus (MSSA), CAMHB supplemented with 0.625 mM calcium, 24 hours at about 37° C.; a range = compound tested multiple times

Row | MIC | SMILES
17 | 125/1-2 μg/mL | CCCCCCCCCCCCCC(=O)NC(CC(=O)O)C(=O)NC1C(=O)N2CCCCC2C(=O)NC(C(C)C(=O)O)C(=O)NC(CC(=O)O)C(=O)NCC(=O)NC(CC(=O)O)C(=O)NCC(=O)NC(C(C)NC(=O)CNC(=O)[C@@H](N)CCCCN)C(=O)NC(C(C)C)C(=O)N2CCCC2C(=O)NC1C (some centres unmarked) [Compound 125, C14-Amphomycin-9-Gly-Lys]
18 | 127/4 μg/mL | CCCCCCCCCCCCCC(=O)NC(CC(=O)O)C(=O)NC1C(=O)N2CCCCC2C(=O)NC(C(C)C(=O)O)C(=O)NC(CC(=O)O)C(=O)NCC(=O)NC(CC(=O)O)C(=O)NCC(=O)NC(C(C)NC(=O)[C@@H](N)CCCN)C(=O)NC(C(C)C)C(=O)N2CCCC2C(=O)NC1C (some centres unmarked) [Compound 127, C14-Amphomycin-9-Orn]
19 | 134/32 μg/mL | CCCCCCCCCCCCC(=O)NC(CC(=O)O)C(=O)NC1C(=O)N2CCCCC2C(=O)NC(C(C)C(=O)O)C(=O)NC(CC(=O)O)C(=O)NCC(=O)NC(CC(=O)O)C(=O)NCC(=O)NC(C(C)NC(=O)[C@@H](N)CCCN)C(=O)NC(C(C)C)C(=O)N2CCCC2C(=O)NC1C (some centres unmarked) [Compound 134, C13-Amphomycin-9-Orn]

Row | SMILES | MIC
20 | CCCCCCCCCCCC(=O)Nc1ccc(CCC(=O)Nc2ccc(CCC(=O)NC(CC(=O)O)C(=O)NC3C(=O)N4CCCCC4C(=O)NC(C(C)C(=O)O)C(=O)NC(CC(=O)O)C(=O)NCC(=O)NC(CC(=O)O)C(=O)NCC(=O)NC(C(C)N)C(=O)NC(C(C)C)C(=O)N4CCCC4C(=O)NC3C)cc2)cc1 (stereo not drawn) [Compound 109, C12-(p-Aminophenylpropanoyl)2-Amphomycin] (Lauroyl-[X2][X2]D[ξAbu(βξ-NH2)][Pip][ξAsp(βξ-Me)]DGDG[ξAbu(3ξ-NH2)]VP; lactam 4-C; configuration not given here) | 2 µg/mL
